Experimental data published in patent US10059667B2, “Antidiabetic compounds” (MERCK SHARP & DOHME CORP., priority 2014, dated 2018).

Legend:
[1] = biological target: T1, Human GPR40 (Homo sapiens (Human), UniProt O14842); assay: FLIPR assay, agonist-induced calcium mobilization in GPR40/CHO NFAT BLA cells; format: cell-based
Experimental: (§1) Human and mouse GPR40 stable cell-lines were generated in CHO cells stably expressing NFAT BLA (Beta-lactamase). A human GPR40 stable cell-line was generated in HEK cells stably expressing the aequorin expressing reporter. The expression plasmids were transfected using lipofectamine (Life Technologies) following manufacturer's instructions. Stable cell-lines were generated following drug selection.
FLIPR (Fluorimetric Imaging Plate Reader, Molecular Devices) assays were performed to measure agonist-induced calcium mobilization of the stable clones. For the FLIPR assay, one day before assay, GPR40/CHO NFAT BLA cells were seeded into black-wall-clear-bottom 384-well plates (Costar) at 1.4×10e4 cells/20 μL medium/well. The cells were incubated with 20 μl/well of the assay buffer (HBSS, 0.1% BSA, 20 mM HEPES, 2.5 mM probenecid, pH 7.4) containing 8 μM fluo-4, AM, 0.08% pluronic acid at room temperature for 100 minutes. Fluorescence output was measured using FLIPR. Compounds were dissolved in DMSO and diluted to desired concentrations with assay buffer. 13.3 μL/well of compound solution was added.

[2] = biological target: T1, Human GPR40; assay: Inositol Phosphate Turnover (IP1) Assay 1, HEK cells stably expressing human GPR40, 3H-inositol SPA; format: cell-based; settings: HEK cells stably expressing human GPR40, 96-well
Experimental: as §1
The assay was performed in 96-well format. HEK cells stably expressing human GPR40 were plated to be 60-80% confluent within 72 h. After 72 h, the plates were aspirated and the cells washed with inositol-free DMEM (ICN). The wash media was replaced with 150 μL of 3H-inositol labeling media (inositol-free media containing 0.4% human albumin or 0.4% mouse albumin, 1× pen/strep antibiotics, glutamine, 25 mM HEPES to which was added 3H-myo-inositol NEN #NET114A 1 mCi/mL, 25 Ci/mmol diluted 1:150 in loading media with a final specific radioactivity of 1 μCi/150 μL). Alternatively, the human and mouse albumin can be added after the overnight labeling step before the addition of LiCl.
The assay was typically run the next day after 18 h labeling. On the day of the assay, 5 μL of 300 mM LiCl was added to all wells and incubated at 37 degrees for 20 min. 0.75 μL of each compound was added and incubated with the cells for 60 min at 37 degrees. The media was then aspirated off and the assay terminated with the addition of 60 μL 10 mM formic acid. The cells were lysed for 60 min at room temperature. 15-30 μL of lysate was mixed with 70 μL/1 mg YSi SPA beads (Amersham) in clear bottom Isoplates. The plates were shaken for 2 h at room temperature. Beads were allowed to settle and the plates were counted in the Wallac Microbeta.

T1 sequence (O14842 whole entry): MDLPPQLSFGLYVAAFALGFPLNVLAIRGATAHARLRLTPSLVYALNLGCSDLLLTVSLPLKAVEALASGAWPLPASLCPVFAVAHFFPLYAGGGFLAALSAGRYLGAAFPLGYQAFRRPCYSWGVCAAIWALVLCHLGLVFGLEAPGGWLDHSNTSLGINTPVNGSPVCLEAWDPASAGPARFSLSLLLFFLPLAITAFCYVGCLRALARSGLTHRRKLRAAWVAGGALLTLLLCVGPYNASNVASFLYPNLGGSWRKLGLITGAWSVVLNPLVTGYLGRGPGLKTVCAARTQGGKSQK

Structure (SMILES)	EC50 [1] [nM]	EC50 [2] [nM]
CC(c1cc(F)ccc1F)N1CC(COc2cccc([C@@H](CC(=O)O)C3CC3)c2)C1 (some centres unmarked) [Example 57]	480	
COc1ccc(F)cc1CN1CC(COc2cccc([C@@H](CC(=O)O)C3CC3)c2)C1 [Example 19, (S)-3-Cyclopropyl-3-(3-((1-(5-fluoro-2-methoxybenzyl)azetidin-3-yl)methoxy)-phenyl)propanoic acid]	497	4780
COc1ccc(F)c(OC2CC(COc3cccc([C@H](C4CC4)[C@H](C)C(=O)O)c3)C2)c1 (stereo partly drawn) [Example 81, (2S,3R)-3-cyclopropyl-3-(3-((3-(2-fluoro-5-methoxyphenoxy)cyclobutyl)methoxy)phenyl)-2-methylpropanoic acid]		45
C[C@H](C(=O)O)[C@H](c1cccc(OCC2CC(Oc3ccn[nH]3)C2)c1)C1CC1 (single isomer, unassigned) [Example 98]		1480
COc1cccc(C2CC(COc3cccc([C@H](C4CC4)[C@H](C)C(=O)O)c3)C2)c1 (some centres unmarked) [Example 85]		35
CCC(c1cc(C(F)(F)F)ccc1C(F)(F)F)N1CC(COc2cccc([C@H](C3CC3)[C@H](C)C(=O)O)c2)C1 (some centres unmarked) [Example 36]		12
C[C@H](C(=O)O)[C@H](c1cccc(OCC2CC(Oc3ccn[nH]3)C2)c1)C1CC1 (single isomer, unassigned) [Example 99]		2670
C[C@H](C(=O)O)[C@H](c1cccc(OCC2CCN(c3cc(C(F)(F)F)ccn3)CC2)c1)C1CC1 [Example 39]		218
COc1ccc(F)c([C@@H]2C[C@H]2COc2cccc([C@H](C3CC3)[C@H](C)C(=O)O)c2)c1 [Example 75]		34
O=C(O)C[C@H](c1cccc(OC2CCN(Cc3cccc(C(F)(F)F)c3)C2)c1)C1CC1 (some centres unmarked) [Example 45]	387	
CC(c1cc(C(F)(F)F)ccc1C(F)(F)F)N1CCC(COc2cccc([C@H](C3CC3)[C@H](C)C(=O)O)c2)CC1 (some centres unmarked) [Example 35]		20
C[C@H](C(=O)O)[C@H](c1cccc(OCC2CCN([C@@H](C)c3cc(C(F)(F)F)ccc3C(F)(F)F)C2)c1)C1CC1 (some centres unmarked) [Example 41]		23
COc1ccc(F)c(OC2CC(COc3cccc([C@H](C4CC4)[C@H](C)C(=O)O)c3)C2)c1 (single isomer, unassigned) [Example 80]		12
COc1cccc(C2CC2COc2cccc([C@H](C3CC3)[C@H](C)C(=O)O)c2)c1 (stereo partly drawn) [Example 82, (2S,3R)-3-cyclopropyl-3-(3-((2-(3-methoxyphenyl)cyclopropyl)methoxy)phenyl)-2-methylpropanoic acid]		172
COc1cc([C@@H]2C[C@H]2COc2cccc([C@H](C3CC3)[C@H](C)C(=O)O)c2)c(F)cn1 [Example 76]		138
C[C@H](C(=O)O)[C@H](c1cccc(OCC2CC(Oc3ccc4c(c3)COC4=O)C2)c1)C1CC1 (single isomer, unassigned) [Example 107]		3450
C[C@H](C(=O)O)[C@H](c1cccc(OCC2CC(Oc3ccccc3)C2)c1)C1CC1 (stereo partly drawn) [Example 92, (2S,3R)-3-cyclopropyl-2-methyl-3-(3-((3-phenoxycyclobutyl)methoxy)phenyl)-propanoic acid]		208
COc1cccc(C[C@@H]2C[C@H]2COc2cccc([C@H](C3CC3)[C@H](C)C(=O)O)c2)c1 [Example 71]		187
C[C@H](C(=O)O)[C@H](c1cccc(OCC2CC(Oc3ccccn3)C2)c1)C1CC1 (some centres unmarked) [Example 103]		187

Further lines, results first:

EC50 [1] [nM]	EC50 [2] [nM]	Structure (SMILES)
	119	CCOc1cccc(OC2CC(COc3cccc([C@H](C4CC4)[C@H](C)C(=O)O)c3)C2)c1 (some centres unmarked) [Example 131]
	802	COc1ncc([C@H]2C[C@@H]2COc2cccc([C@H](C3CC3)[C@H](C)C(=O)O)c2)cc1F [Example 149]
	77	COc1ccc(C)cc1OC1CC(COc2cccc([C@H](C3CC3)[C@H](C)C(=O)O)c2)C1 (single isomer, unassigned) [Example 116]
	7190	C[C@H](C(=O)O)[C@H](c1cccc(OCC2CC(Oc3cccnc3)C2)c1)C1CC1 (some centres unmarked) [Example 109]
	1970	C[C@H](C(=O)O)[C@H](c1cccc(OCC2CC(Oc3ccc4c(c3)COC4=O)C2)c1)C1CC1 (single isomer, unassigned) [Example 108]
	561	C[C@H](C(=O)O)[C@H](c1cccc(OCC2CC(Oc3cccc(-c4ccccc4)c3)C2)c1)C1CC1 (single isomer, unassigned) [Example 121]
	176	C[C@H](C(=O)O)[C@H](c1cccc(OC[C@H]2C[C@@H]2c2cccc(OC(F)(F)F)c2)c1)C1CC1 [Example 137]
	111	C[C@H](C(=O)O)[C@H](c1cccc(OC[C@H]2C[C@@H]2c2cc(OC(F)(F)F)ccc2Cl)c1)C1CC1 [Example 146]
	156	Cc1ccc(F)c(OC2CC(COc3cccc([C@H](C4CC4)[C@H](C)C(=O)O)c3)C2)c1 (single isomer, unassigned) [Example 118]
	4440	C[C@H](C(=O)O)[C@H](c1cccc(OC[C@H]2C[C@@H]2c2cccnc2)c1)C1CC1 [Example 147]
	109	COc1cccc(F)c1OC1CC(COc2cccc([C@H](C3CC3)[C@H](C)C(=O)O)c2)C1 (single isomer, unassigned) [Example 129]
	577	COc1ccc(OC2CC(COc3cccc([C@H](C4CC4)[C@H](C)C(=O)O)c3)C2)cc1 (some centres unmarked) [Example 124]
	355	C[C@H](C(=O)O)[C@H](c1cccc(OC[C@H]2C[C@@H]2c2ccc(Cl)c(C(F)(F)F)c2)c1)C1CC1 [Example 156]
	1210	CCOc1ccc(OC2CC(COc3cccc([C@H](C4CC4)[C@H](C)C(=O)O)c3)C2)cc1 (some centres unmarked) [Example 113]
	975	C[C@H](C(=O)O)[C@H](c1cccc(OCC2CC(Oc3cccc(-c4ccccc4)c3)C2)c1)C1CC1 (single isomer, unassigned) [Example 120]
	139	COc1cccc(F)c1OC1CC(COc2cccc([C@H](C3CC3)[C@H](C)C(=O)O)c2)C1 (single isomer, unassigned) [Example 130]
	385	C[C@H](C(=O)O)[C@H](c1cccc(OC[C@H]2C[C@@H]2c2ccc(F)c(C(F)(F)F)c2)c1)C1CC1 [Example 144]
	130	C[C@H](C(=O)O)[C@H](c1cccc(OC[C@H]2C[C@@H]2c2cc(C(F)(F)F)ccc2F)c1)C1CC1 [Example 157]
	78	COc1ccc(F)c([C@H]2C[C@@H]2COc2cccc([C@H](C3CC3)[C@H](C)C(=O)O)c2)c1F [Example 142]
	307	C[C@H](C(=O)O)[C@H](c1cccc(OCC2CC(Oc3cccc4c3OC(C)(C)C4)C2)c1)C1CC1 (some centres unmarked) [Example 135]
	110	C[C@H](C(=O)O)[C@H](c1cccc(OCC2CC(Oc3cc(F)ccc3F)C2)c1)C1CC1 (some centres unmarked) [Example 115]
	152	C[C@H](C(=O)O)[C@H](c1cccc(OCC2CC(Oc3ccccc3Cl)C2)c1)C1CC1 (single isomer, unassigned) [Example 133]
	597	C[C@H](C(=O)O)[C@H](c1cccc(OCC2CC(Oc3cccc(O)c3)C2)c1)C1CC1 (single isomer, unassigned) [Example 122]
	26	COc1ccc(Cl)c([C@H]2C[C@@H]2COc2cccc([C@H](C3CC3)[C@H](C)C(=O)O)c2)c1 [Example 158]
